Key:
Assay type in all cases: in vivo
[1] = system: Italian ryegrass (Lolium multiflorum); experiment: Test B pre-/postemergence plant response; conditions: Postemergence
Excerpt: (§1) Seeds of plant species selected from blackgrass (Alopecurus myosuroides), downy bromegrass (Bromus tectorum), green foxtail (Setaria viridis), Italian ryegrass (Lolium multiflorum), wheat (Triticum aestivum), wild oat (Avena fatua), deadnettle (henbit deadnettle, Lamium amplexicaule), galium (catchweed bedstraw, Galium aparine), bermudagrass (Cynodon dactylon), Surinam grass (Brachiaria decumbens), cocklebur (Xanthium strumarium), corn (Zea mays), large crabgrass (Digitaria sanguinalis), woolly cupgrass (Eriochloa villosa), giant foxtail (Setaria faberii), goosegrass (Eleusine indica), johnsongrass (Sorghum halepense), kochia (Kochia scoparia), lambsquarters (Chenopodium album), morningglory (Ipomoea coccinea), nightshade (eastern black nightshade, Solanum ptycanthum), yellow nutsedge (Cyperus esculentus), pigweed (Amaranthus retroflexus), ragweed (common ragweed, Ambrosia elatior), Russian thistle (Salsola kali), soybean (Glycine max), sunflower (common oilseed sunflower, Helianthus annuus) and velvetleaf (Abutilon theophrasti) were planted into a blend of loam soil and sand and treated preemergence with test compounds formulated in a non-phytotoxic solvent mixture which included a surfactant.
(§2) At the same time, plants selected from these crop and weed species and also winter barley (Hordeum vulgare), canarygrass (Phalaris minor), chickweed (Stellaria media) and windgrass (Apera spica-venti) were planted in pots containing Redi-Earth® planting medium (Scotts Company, 14111 Scottslawn Road, Marysville, Ohio 43041) comprising spaghnum peat moss, vermiculite, wetting agent and starter nutrients and treated with postemergence applications of some of the test chemicals formulated in the same manner. Plants ranged in height from 2 to 18 cm (1- to 4-leaf stage) for postemergence treatments.
(§3) Treated plants and controls were maintained in a greenhouse for 13 to 15 days, after which time all treated plants were visually evaluated and compared to controls. Plant response ratings, summarized in Table B, are based on a scale of 0 to 100 where 0 is no effect and 100 is complete control. A dash (-) response means no test result.

[2] = system: Surinam grass (Brachiaria decumbens); experiment: Test B pre-/postemergence plant response; conditions: Postemergence
Excerpt: as §1, §2, §3

[3] = system: bermudagrass (Cynodon dactylon); experiment: Test B pre-/postemergence plant response; conditions: for Bermudagrass plant response rating (0 to 100 scale): 62 g ai/ha, postemergence, 0 is no effect, 100 is complete control; for Plant response rating, Bermudagrass: Postemergence
Excerpt: as §1, §2, §3

[4] = system: blackgrass (Alopecurus myosuroides); experiment: Test B pre-/postemergence plant response; conditions: for Blackgrass plant response rating (0 to 100 scale): 62 g ai/ha, postemergence, 0 is no effect, 100 is complete control; for Plant response rating, Blackgrass: Postemergence
Excerpt: as §1, §2, §3

[5] = system: cocklebur (Xanthium strumarium); experiment: Test B pre-/postemergence plant response; conditions: Postemergence
Excerpt: as §1, §2, §3

corn (Zea mays) = experiment: Test B pre-/postemergence plant response; conditions: Postemergence
Excerpt: as §1, §2, §3

[6] = system: morningglory (Ipomoea coccinea); experiment: Test B pre-/postemergence plant response; conditions: Postemergence
Excerpt: as §1, §2, §3

soybean (Glycine max) = experiment: Test B pre-/postemergence plant response; conditions: Postemergence
Excerpt: as §1, §2, §3

[7] = system: barnyardgrass (Echinochloa crus-galli); experiment: Test B flooded paddy test; conditions: for Plant response rating, Flood, Barnyardgrass: 250 g ai/ha, flooded paddy test, visual rating on 0 to 100 scale (0 no effect, 100 complete control) after 13 to 15 days; for Plant response rating, Barnyardgrass: Flood (flooded paddy test), 13 to 15 days; for Barnyardgrass plant response rating: Flood, 31 g ai/ha, scale 0 to 100 (0 no effect, 100 complete control)
How it was run: (§4)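 Plants were grown to the 2-leaf stage, then pots were flooded to 3 cm above the soil and compounds were applied directly into the paddy water. That depth was held throughout. After 13 to 15 days in a greenhouse, injury was visually rated against controls on a 0–100 scale.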

[8] = system: ducksalad (Heteranthera limosa); experiment: Test B flooded paddy test; conditions: for Plant response rating, Flood, Ducksalad: 250 g ai/ha, flooded paddy test, visual rating on 0 to 100 scale (0 no effect, 100 complete control) after 13 to 15 days; for Plant response rating, Ducksalad: Flood (flooded paddy test), 13 to 15 days; for Ducksalad plant response rating: Flood, 31 g ai/ha, scale 0 to 100 (0 no effect, 100 complete control)
How it was run: as §4

rice (Oryza sativa) = experiment: Test B flooded paddy test; conditions: for Plant response rating, Flood, Rice: 250 g ai/ha, flooded paddy test, visual rating on 0 to 100 scale (0 no effect, 100 complete control) after 13 to 15 days; for Plant response rating, Rice: Flood (flooded paddy test), 13 to 15 days; for Rice plant response rating: Flood, 31 g ai/ha, scale 0 to 100 (0 no effect, 100 complete control)
How it was run: as §4

[9] = system: umbrella sedge (Cyperus difformis); experiment: Test B flooded paddy test; conditions: for Plant response rating, Flood, Sedge, Umbrella: 250 g ai/ha, flooded paddy test, visual rating on 0 to 100 scale (0 no effect, 100 complete control) after 13 to 15 days; for Plant response rating, Sedge, Umbrella: Flood (flooded paddy test), 13 to 15 days; for Sedge, Umbrella plant response rating: Flood, 31 g ai/ha, scale 0 to 100 (0 no effect, 100 complete control)
How it was run: as §4

[10] = 31 g ai/ha, 0 to 100 scale (0 no effect, 100 complete control)
[11] = 125 g ai/ha, scale 0 to 100 (0 no effect, 100 complete control)
[12] = 250 g ai/ha, scale 0 to 100 (0 no effect, 100 complete control), 13 to 15 days
[13] = 62 g ai/ha, scale of 0 to 100 where 0 is no effect and 100 is complete control
[14] = 125 g ai/ha, scale 0 to 100, 0 is no effect, 100 is complete control

## Cc1ccc(Cl)cc1-n1c(-c2cccc(F)c2)ncc(C(=O)C2=C(O)CCCC2=O)c1=O [Compound 184]
[1]; [10]
  Plant response rating, Ryegrass, Italian: 20
[1]; [11]
  Plant response rating, Ryegrass, Italian: 45
[1]; [12]
  Plant response rating, Ryegrass, Italian: 60
[2]; [10]
  Plant response rating, Surinam Grass: 80
[2]; [11]
  Plant response rating, Surinam Grass: 100
[2]; [12]
  Plant response rating, Surinam Grass: 100
[3]; 13 to 15 days
  Bermudagrass plant response rating (0 to 100 scale): 100
[3]; [10]
  Plant response rating, Bermudagrass: 98
[3]; [11]
  Plant response rating, Bermudagrass: 100
[3]; [12]
  Plant response rating, Bermudagrass: 100
[4]; 13 to 15 days
  Blackgrass plant response rating (0 to 100 scale): 35
[4]; [10]
  Plant response rating, Blackgrass: 30
[4]; [11]
  Plant response rating, Blackgrass: 40
[4]; [12]
  Plant response rating, Blackgrass: 50
[5]; [10]
  Plant response rating, Cocklebur: 100
[5]; [11]
  Plant response rating, Cocklebur: 100
[5]; [12]
  Plant response rating, Cocklebur: 100
Corn (Zea mays); [10]
  Plant response rating, Corn: 80
Corn (Zea mays); [11]
  Plant response rating, Corn: 85
Corn (Zea mays); [12]
  Plant response rating, Corn: 98
[6]; [10]
  Plant response rating, Morningglory: 40
[6]; [11]
  Plant response rating, Morningglory: 100
[6]; [12]
  Plant response rating, Morningglory: 100
Soybean (Glycine max); [10]
  Plant response rating, Soybean: 98
Soybean (Glycine max); [11]
  Plant response rating, Soybean: 100
Soybean (Glycine max); [12]
  Plant response rating, Soybean: 100
[7]
  Plant response rating, Flood, Barnyardgrass: 25
  Barnyardgrass plant response rating: 0
[7]; [13]
  Plant response rating, Barnyardgrass: 0
[7]; [14]
  Plant response rating, Barnyardgrass: 20
[8]
  Plant response rating, Flood, Ducksalad: 100
  Ducksalad plant response rating: 95
[8]; [13]
  Plant response rating, Ducksalad: 100
[8]; [14]
  Plant response rating, Ducksalad: 100
Rice (Oryza sativa)
  Plant response rating, Flood, Rice: 15
  Rice plant response rating: 15
Rice (Oryza sativa); [13]
  Plant response rating, Rice: 15
Rice (Oryza sativa); [14]
  Plant response rating, Rice: 15
[9]
  Plant response rating, Flood, Sedge, Umbrella: 95
  Sedge, Umbrella plant response rating: 65
[9]; [13]
  Plant response rating, Sedge, Umbrella: 80
[9]; [14]
  Plant response rating, Sedge, Umbrella: 80

## CCCn1c(-c2cccc(Cl)c2)ncc(C(=O)C2=C(O)CCCC2=O)c1=O [Compound 190]
[1]; [10]
  Plant response rating, Ryegrass, Italian: 0
[1]; [11]
  Plant response rating, Ryegrass, Italian: 20
[1]; [12]
  Plant response rating, Ryegrass, Italian: 30
[2]; [10]
  Plant response rating, Surinam Grass: 60
[2]; [11]
  Plant response rating, Surinam Grass: 75
[2]; [12]
  Plant response rating, Surinam Grass: 90
[3]; 13 to 15 days
  Bermudagrass plant response rating (0 to 100 scale): 100
[3]; [10]
  Plant response rating, Bermudagrass: 98
[3]; [11]
  Plant response rating, Bermudagrass: 100
[3]; [12]
  Plant response rating, Bermudagrass: 100
[4]; 13 to 15 days
  Blackgrass plant response rating (0 to 100 scale): 30
[4]; [10]
  Plant response rating, Blackgrass: 5
[4]; [11]
  Plant response rating, Blackgrass: 35
[4]; [12]
  Plant response rating, Blackgrass: 40
[5]; [10]
  Plant response rating, Cocklebur: 40
[5]; [11]
  Plant response rating, Cocklebur: 95
[5]; [12]
  Plant response rating, Cocklebur: 100
Corn (Zea mays); [10]
  Plant response rating, Corn: 0
Corn (Zea mays); [11]
  Plant response rating, Corn: 40
Corn (Zea mays); [12]
  Plant response rating, Corn: 65
[6]; [10]
  Plant response rating, Morningglory: 40
[6]; [11]
  Plant response rating, Morningglory: 85
[6]; [12]
  Plant response rating, Morningglory: 100
Soybean (Glycine max); [10]
  Plant response rating, Soybean: 80
Soybean (Glycine max); [11]
  Plant response rating, Soybean: 95
Soybean (Glycine max); [12]
  Plant response rating, Soybean: 98
[7]
  Plant response rating, Flood, Barnyardgrass: 30
  Barnyardgrass plant response rating: 0
[7]; [13]
  Plant response rating, Barnyardgrass: 0
[7]; [14]
  Plant response rating, Barnyardgrass: 20
[8]
  Plant response rating, Flood, Ducksalad: 100
  Ducksalad plant response rating: 20
[8]; [13]
  Plant response rating, Ducksalad: 20
[8]; [14]
  Plant response rating, Ducksalad: 40
Rice (Oryza sativa)
  Plant response rating, Flood, Rice: 15
  Rice plant response rating: 15
Rice (Oryza sativa); [13]
  Plant response rating, Rice: 15
Rice (Oryza sativa); [14]
  Plant response rating, Rice: 15
[9]
  Plant response rating, Flood, Sedge, Umbrella: 95
  Sedge, Umbrella plant response rating: 0
[9]; [13]
  Plant response rating, Sedge, Umbrella: 0
[9]; [14]
  Plant response rating, Sedge, Umbrella: 30

Source: patent US8952024B2, “Herbicidal pyrimidone derivatives” (E I du Pont de Nemours and Company, priority 2009, dated 2015)
